From patent US6274715A, “Tricyclic erythromycin derivatives” (priority 1997, dated 2001)
In brackets after ≈: the same amount, converted by molar mass.

How the values were obtained:
Assay type in all cases: cell-based
[1] = system: STAPHYLOCOCCUS AUREUS ATCC 6538P; test: In vitro antibacterial activity, MIC, BHI agar dilution; conditions: S. aureus ATCC 6538P, 35-37° C., 20 to 24 hours, unit assumed
[2] = system: PSEUDOMONAS AERUGINOSA K799/61; test: as above; conditions: P. aeruginosa K799/61, unit assumed
[3] = system: ESCHERICHIA COLI KNK 437; conditions: E. coli KNK 437; BHI agar; unit assumed
[4] = system: STAPHYLOCOCCUS AUREUS A5177; test: In vitro antibacterial activity, MIC, BHI agar dilution; conditions: S. aureus A5177, unit assumed
[5] = system: STAPHYLOCOCCUS EPIDERMIDIS 3519; conditions: S. epidermidis 3519; BHI agar; unit assumed
[6] = system: STREPTOCOCCUS PYOGENES 930; test: In vitro antibacterial activity, MIC, BHI agar dilution; conditions: S. pyogenes 930, unit assumed
[7] = system: M[…] ATCC 4698; test: as above; conditions: M. luteus ATCC 4698, unit assumed
How it was run: (§1)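 MIC was read visually as the lowest drug level with no growth, a slight haze or sparsely isolated colonies relative to a compound-free growth control. Organisms were spotted at 1:100 dilution (1:10 for slow-growing strains) onto Brain Heart Infusion agar containing serial compound dilutions and incubated 20 to 24 hours at 35-37° C.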

[8] = system: M[…] ATCC 9341; test: as above; conditions: M. luteus ATCC 9341, unit assumed
How it was run: as §1

[9] = system: EN[…] ATCC 8043; test: as above; conditions: E. faecium ATCC 8043, unit assumed
How it was run: as §1

[10] = system: STR[…] 508; test: as above; conditions: S. agalactiae CMX 508, unit assumed
How it was run: as §1

[11] = system: CANDIDA ALBICANS CCH 442; test: as above; conditions: C. albicans CCH 442, unit assumed
[12] = system: STREPTOCOCCUS PYOGENES EES61; test: as above; conditions: S. pyogenes EES61, unit assumed
[13] = system: ACINETOBACTER CALCOACETICUS CMX 669; test: as above; conditions: A. calcoaceticus CMX 669, unit assumed
[14] = system: PSEUDOMONAS AERUGINOSA BMH10; test: as above; conditions: P. aeruginosa BMH10, unit assumed
[15] = system: KLEBSIELLA PNEUMONIAE ATCC 8045; test: as above; conditions: K. pneumoniae ATCC 8045, unit assumed
[16] = system: ESCHERICHIA COLI JUHL; conditions: E. coli JUHL; BHI agar; unit assumed
[17] = system: ENTEROBACTER AEROGENES ATCC 13048; test: In vitro antibacterial activity, MIC, BHI agar dilution; conditions: E. aerogenes ATCC 13048, unit assumed
[18] = system: STAPHYLOCOCCUS AUREUS A-5278; test: as above; conditions: S. aureus A-5278, unit assumed
[19] = system: PSEUDOMONAS AERUGINOSA DPHD-2862; test: as above; conditions: P. aeruginosa DPHD-2862, unit assumed
[20] = system: ESCHERICHIA COLI DC-2; test: as above; conditions: E. coli DC-2, unit assumed
[21] = system: ESCHERICHIA COLI SS; test: as above; conditions: E. coli SS, unit assumed
[22] = system: MYCOBACTERIUM SMEGMATIS ATCC 114; test: as above; conditions: M. smegmatis ATCC 114, unit assumed
[23] = system: STAPHYLOCOCCUS AUREUS CMX 642A; test: as above; conditions: S. aureus CMX 642A, unit assumed
[24] = system: PSEUDOMONAS AERUGINOSA K799/WT; test: as above; conditions: P. aeruginosa K799/WT, unit assumed
[25] = system: PSEUDOMONAS CEPACIA 296I; test: as above; conditions: P. cepacia 296I, unit assumed
[26] = system: PROVIDENCIA STUARTII CMX 640; conditions: P. stuartii CMX 640; BHI agar; unit assumed
[27] = system: PSEUDOMONAS AERUGINOSA DPHD-5263; test: In vitro antibacterial activity, MIC, BHI agar dilution; conditions: P. aeruginosa DPHD-5263, unit assumed
[28] = system: STAPHYLOCOCCUS AUREUS 1775; test: as above; conditions: S. aureus 1775, unit assumed
[29] = system: PSEUDOMONAS AERUGINOSA 5007; test: as above; conditions: P. aeruginosa 5007, unit assumed
[30] = system: STREPTOCOCCUS BOVIS A-5169; test: as above; conditions: S. bovis A-5169, unit assumed
[31] = system: STAPHYLOCOCCUS AUREUS NCTC10649M; test: as above; conditions: S. aureus NCTC10649M, unit assumed
[32] = system: ESCHERICHIA COLI H560; test: as above; conditions: E. coli H560, unit assumed
[33] = system: STAPHYLOCOCCUS AUREUS CMX 553; test: as above; conditions: S. aureus CMX 553, unit assumed
[34] = system: STREPTOCOCCUS PYOGENES PIU 2548; test: as above; conditions: S. pyogenes PIU 2548, unit assumed

SMILES | MIC [1] [µg/mL] | MIC [2] [µg/mL] | MIC [3] [µg/mL] | MIC [4] [µg/mL] | MIC [5] [µg/mL] | MIC [6] [µg/mL] | MIC [7] [µg/mL] | MIC [8] [µg/mL] | MIC [9] [µg/mL] | MIC [10] [µg/mL] | MIC [11] [µg/mL] | MIC [12] [µg/mL] | MIC [13] [µg/mL] | MIC [14] [µg/mL] | MIC [15] [µg/mL] | MIC [16] [µg/mL] | MIC [17] [µg/mL] | MIC [18] [µg/mL] | MIC [19] [µg/mL] | MIC [20] [µg/mL] | also measured
CC[C@H]1OC(=O)[C@H](C)C(=O)[C@H](C)[C@@H](O[C@@H]2O[C@H](C)C[C@H](N(C)C)[C@H]2O)[C@](C)(OC)C[C@@H](C)C2=N[C@H](COCc3ccc(F)cc3)CN3C(=O)O[C@@]1(C)[C@H]3[C@H]2C [Example 101] | 0.05 (≈ 0.0644 µM) | 1.56 (≈ 2.01 µM) | > 100 | 0.05 (≈ 0.0644 µM) | 0.1 (≈ 0.129 µM) | > 100 | 0.02 (≈ 0.0258 µM) | ≤ 0.005 | ≤ 0.005 | ≤ 0.005 | > 100 | ≤ 0.005 | 100 (≈ 129 µM) | > 100 | > 100 | > 100 | > 100 | > 100 | > 100 | > 100 | MIC [21]: 0.2 µg/mL (≈ 0.258 µM); MIC [22]: 0.39 µg/mL (≈ 0.503 µM); MIC [23]: 0.1 µg/mL (≈ 0.129 µM); MIC [24]: > 100 µg/mL; MIC [25]: 100 µg/mL (≈ 129 µM); MIC [26]: > 100 µg/mL; MIC [27]: > 100 µg/mL; MIC [28]: > 100 µg/mL; MIC [29]: > 100 µg/mL; MIC [30]: ≤ 0.005 µg/mL; MIC [31]: 0.05 µg/mL (≈ 0.0644 µM); MIC [32]: 100 µg/mL (≈ 129 µM); MIC [33]: 0.05 µg/mL (≈ 0.0644 µM); MIC [34]: 0.05 µg/mL (≈ 0.0644 µM)
CC[C@H]1OC(=O)[C@H](C)C(=O)[C@H](C)[C@@H](O[C@@H]2O[C@H](C)C[C@H](N(C)C)[C@H]2O)[C@](C)(OC)C[C@@H](C)C2=N[C@H](COCc3ccccc3Br)CN3C(=O)O[C@@]1(C)[C@H]3[C@H]2C [Example 104] | 0.05 (≈ 0.0597 µM) | 3.1 (≈ 3.7 µM) | > 100 | 0.05 (≈ 0.0597 µM) | 0.05 (≈ 0.0597 µM) | 25 (≈ 29.9 µM) | 0.1 (≈ 0.119 µM) | 0.02 (≈ 0.0239 µM) | 0.01 (≈ 0.0119 µM) | 0.01 (≈ 0.0119 µM) | 100 (≈ 119 µM) | 0.01 (≈ 0.0119 µM) | 100 (≈ 119 µM) | > 100 | > 100 | 100 (≈ 119 µM) | > 100 | 100 (≈ 119 µM) | > 100 | 100 (≈ 119 µM) | MIC [21]: 0.78 µg/mL (≈ 0.932 µM); MIC [22]: 0.39 µg/mL (≈ 0.466 µM); MIC [23]: 0.05 µg/mL (≈ 0.0597 µM); MIC [24]: > 100 µg/mL; MIC [25]: 100 µg/mL (≈ 119 µM); MIC [26]: > 100 µg/mL; MIC [27]: > 100 µg/mL; MIC [28]: 100 µg/mL (≈ 119 µM); MIC [29]: > 100 µg/mL; MIC [30]: 0.01 µg/mL (≈ 0.0119 µM); MIC [31]: 0.05 µg/mL (≈ 0.0597 µM); MIC [32]: 50 µg/mL (≈ 59.7 µM); MIC [33]: 0.05 µg/mL (≈ 0.0597 µM); MIC [34]: 0.05 µg/mL (≈ 0.0597 µM)
CC[C@H]1OC(=O)[C@H](C)C(=O)[C@H](C)[C@@H](O[C@@H]2O[C@H](C)C[C@H](N(C)C)[C@H]2O)[C@](C)(OC)C[C@@H](C)C2=N[C@H](COCc3cccc(Br)c3)CN3C(=O)O[C@@]1(C)[C@H]3[C@H]2C [Example 105] | 0.05 (≈ 0.0597 µM) | 1.56 (≈ 1.86 µM) | > 100 | 0.05 (≈ 0.0597 µM) | 0.05 (≈ 0.0597 µM) | 25 (≈ 29.9 µM) | 0.01 (≈ 0.0119 µM) | ≤ 0.005 | ≤ 0.005 | ≤ 0.005 | 100 (≈ 119 µM) | ≤ 0.005 | 100 (≈ 119 µM) | > 100 | > 100 | 100 (≈ 119 µM) | > 100 | 100 (≈ 119 µM) | > 100 | 100 (≈ 119 µM) | MIC [21]: 0.39 µg/mL (≈ 0.466 µM); MIC [22]: 0.78 µg/mL (≈ 0.932 µM); MIC [23]: 0.05 µg/mL (≈ 0.0597 µM); MIC [24]: > 100 µg/mL; MIC [25]: 100 µg/mL (≈ 119 µM); MIC [26]: > 100 µg/mL; MIC [27]: > 100 µg/mL; MIC [28]: 100 µg/mL (≈ 119 µM); MIC [29]: > 100 µg/mL; MIC [30]: ≤ 0.005 µg/mL; MIC [31]: 0.02 µg/mL (≈ 0.0239 µM); MIC [32]: 50 µg/mL (≈ 59.7 µM); MIC [33]: 0.05 µg/mL (≈ 0.0597 µM); MIC [34]: 0.05 µg/mL (≈ 0.0597 µM)
CC[C@H]1OC(=O)[C@H](C)C(=O)[C@H](C)[C@@H](O[C@@H]2O[C@H](C)C[C@H](N(C)C)[C@H]2O)[C@](C)(OC)C[C@@H](C)C2=NC3CN(CCc4ccccc4[N+](=O)[O-])CC3N3C(=O)O[C@@]1(C)[C@H]3[C@H]2C (stereo partly shown) [Example 119] | 0.39 (≈ 0.471 µM) | 0.78 (≈ 0.942 µM) | > 100 | 0.39 (≈ 0.471 µM) | 0.39 (≈ 0.471 µM) | > 100 | 0.39 (≈ 0.471 µM) | 0.05 (≈ 0.0604 µM) | 0.1 (≈ 0.121 µM) | 0.02 (≈ 0.0242 µM) | > 100 | 0.02 (≈ 0.0242 µM) | 100 (≈ 121 µM) | > 100 | > 100 | 100 (≈ 121 µM) | > 100 | > 100 | > 100 | > 100 | MIC [21]: 0.78 µg/mL (≈ 0.942 µM); MIC [22]: 0.78 µg/mL (≈ 0.942 µM); MIC [23]: 0.39 µg/mL (≈ 0.471 µM); MIC [24]: > 100 µg/mL; MIC [25]: > 100 µg/mL; MIC [26]: > 100 µg/mL; MIC [27]: > 100 µg/mL; MIC [28]: > 100 µg/mL; MIC [29]: > 100 µg/mL; MIC [30]: 0.02 µg/mL (≈ 0.0242 µM); MIC [31]: 0.2 µg/mL (≈ 0.242 µM); MIC [32]: > 100 µg/mL; MIC [33]: 0.2 µg/mL (≈ 0.242 µM); MIC [34]: 0.78 µg/mL (≈ 0.942 µM)
